Activity calls are given as the source filed them. The rule behind the calls is not given here.
Legend:
Type in all cases: functional, organism-based
[1] = test system: Mus musculus; experiment: Anti-obesity activity in C57BL/6 mouse assessed as serum IL-18 level at low dose administered intragastrically once daily for 5 weeks (reference value: 149.1 +/- 2.066 pg/ml)
[2] = test system: Mus musculus; experiment: Anti-obesity activity in C57BL/6 mouse assessed as serum TC level at low dose administered intragastrically once daily for 5 weeks (reference value: 11.12 +/- 0.32 mmol/g)
[3] = test system: Mus musculus; experiment: Anti-obesity activity in C57BL/6 mouse assessed as reduction in inflammatory cell infiltration in liver at low to high dose administered intragastrically once daily for 5 weeks by H and E staining based analysis; settings: route ig
[4] = test system: Mus musculus; experiment: Anti-obesity activity in C57BL/6 mouse assessed as liver IL-6 level at high dose administered intragastrically once daily for 5 weeks (reference value: 1042.25 +/- 21.85 pg/g); settings: route ig
[5] = test system: Mus musculus; experiment: Anti-obesity activity in C57BL/6 mouse assessed as final weight at low dose administered intragastrically once daily for 5 weeks (reference value: 28.86 +/- 0.86 g); settings: route ig
[6] = test system: Mus musculus; experiment: Anti-obesity activity in C57BL/6 mouse assessed as reduction in serum TC level at high dose administered intragastrically once daily for 5 weeks relative to control; design: scale not given: the % may be the effect or the level left; settings: route ig
[7] = test system: Mus musculus; experiment: Anti-obesity activity in C57BL/6 mouse assessed as reduction in adipocyte volume at low to high dose administered intragastrically once daily for 5 weeks by CT analysis; settings: route ig
[8] = test system: Mus musculus; experiment: Anti-obesity activity in C57BL/6 mouse assessed as liver TNF-alpha level at low dose administered intragastrically once daily for 5 weeks (reference value: 5940.65 +/- 261.75 pg/g)
[9] = test system: Mus musculus; experiment: Anti-obesity activity in C57BL/6 mouse assessed as reduction in liver TNF-alpha level at high dose administered intragastrically once daily for 5 weeks relative to control; design: scale not given: the % may be the effect or the level left; settings: route ig
[10] = test system: Mus musculus; experiment: Anti-obesity activity in C57BL/6 mouse assessed as serum TG level at high dose administered intragastrically once daily for 5 weeks (reference value: 13.13 +/- 1.10 mmol/g)
[11] = test system: Mus musculus; experiment: Anti-obesity activity in C57BL/6 mouse assessed as reduction in serum IL-18 level at high dose administered intragastrically once daily for 5 weeks relative to control; design: scale not given: the % may be the effect or the level left; settings: route ig
[12] = test system: Mus musculus; experiment: Anti-obesity activity in C57BL/6 mouse assessed as liver index at low dose administered intragastrically once daily for 5 weeks (reference value: 3.97 +/- 0.09 %); settings: route ig
[13] = test system: Mus musculus; experiment: Anti-obesity activity in C57BL/6 mouse assessed as liver index at high dose administered intragastrically once daily for 5 weeks (reference value: 3.97 +/- 0.09 %); settings: route ig
[14] = test system: Mus musculus; experiment: Anti-obesity activity in C57BL/6 mouse assessed as final weight at high dose administered intragastrically once daily for 5 weeks (reference value: 28.86 +/- 0.86 g); settings: route ig
[15] = test system: Mus musculus; experiment: Anti-obesity activity in C57BL/6 mouse assessed as weight difference at low dose administered intragastrically once daily for 5 weeks (reference value: 9.80 +/- 0.97 g); settings: route ig
[16] = test system: Mus musculus; experiment: Anti-obesity activity in C57BL/6 mouse assessed as reduction in subabdominal fat thickness at low to high dose administered intragastrically once daily for 5 weeks by CT analysis; settings: route ig
[17] = test system: Mus musculus; experiment: Anti-obesity activity in C57BL/6 mouse assessed as liver weight at high dose administered intragastrically once daily for 5 weeks (reference value: 1.15 +/- 0.04 g); settings: route ig
[18] = test system: Mus musculus; experiment: Anti-obesity activity in C57BL/6 mouse assessed as decrease in ratio of p-AKT/AKT levels in liver at low to high dose administered intragastrically once daily for 5 weeks by immunoblot analysis; settings: route ig
[19] = test system: Mus musculus; experiment: Anti-obesity activity in C57BL/6 mouse assessed as reduction in serum TG level at high dose administered intragastrically once daily for 5 weeks relative to control; design: scale not given: the % may be the effect or the level left; settings: route ig
[20] = test system: Mus musculus; experiment: Anti-obesity activity in C57BL/6 mouse assessed as decrease in […] level in liver at low to high dose administered intragastrically once daily for 5 weeks by immunoblot analysis; settings: route ig
[21] = test system: Mus musculus; experiment: Anti-obesity activity in C57BL/6 mouse assessed as serum IL-18 level at high dose administered intragastrically once daily for 5 weeks (reference value: 149.1 +/- 2.066 pg/ml)
[22] = test system: Mus musculus; experiment: Anti-obesity activity in C57BL/6 mouse assessed as decrease in ratio of p-NFkappaB/NFkappaB levels in liver at low to high dose administered intragastrically once daily for 5 weeks by immunoblot analysis; settings: route ig
[23] = test system: Mus musculus; experiment: Anti-obesity activity in C57BL/6 mouse assessed as serum TC level at high dose administered intragastrically once daily for 5 weeks (reference value: 11.12 +/- 0.32 mmol/g)
[24] = test system: Mus musculus; experiment: Anti-obesity activity in C57BL/6 mouse assessed as decrease in ratio of p-PI3K/PI3K levels in liver at low to high dose administered intragastrically once daily for 5 weeks by immunoblot analysis; settings: route ig
[25] = test system: Mus musculus; experiment: Anti-obesity activity in C57BL/6 mouse assessed as liver weight at low dose administered intragastrically once daily for 5 weeks (reference value: 1.15 +/- 0.04 g); settings: route ig
[26] = test system: Mus musculus; experiment: Anti-obesity activity in C57BL/6 mouse assessed as liver TNF-alpha level at high dose administered intragastrically once daily for 5 weeks (reference value: 5940.65 +/- 261.75 pg/g); settings: route ig
[27] = test system: Mus musculus; experiment: Anti-obesity activity in C57BL/6 mouse assessed as reduction in liver IL-6 level at high dose administered intragastrically once daily for 5 weeks relative to control; design: scale not given: the % may be the effect or the level left; settings: route ig
[28] = test system: Mus musculus; experiment: Anti-obesity activity in C57BL/6 mouse assessed as reduction in lipid droplets in liver at low to high dose administered intragastrically once daily for 5 weeks by H and E staining based analysis; settings: route ig
[29] = test system: Mus musculus; experiment: Anti-obesity activity in C57BL/6 mouse assessed as weight difference at high dose administered intragastrically once daily for 5 weeks (reference value: 9.80 +/- 0.97 g); settings: route ig
[30] = test system: Mus musculus; experiment: Anti-obesity activity in C57BL/6 mouse assessed as decrease in ratio of p-IkappaBalpha/IkappaBalpha levels in liver at low to high dose administered intragastrically once daily for 5 weeks by immunoblot analysis; settings: route ig
[31] = test system: Mus musculus; experiment: Anti-obesity activity in C57BL/6 mouse assessed as decrease in IL-1beta level in liver at low to high dose administered intragastrically once daily for 5 weeks by immunoblot analysis; settings: route ig
[32] = test system: Mus musculus; experiment: Anti-obesity activity in C57BL/6 mouse assessed as initial weight at low dose administered intragastrically once daily for 5 weeks (reference value: 19.06 +/- 0.94 g); settings: route ig
[33] = test system: Mus musculus; experiment: Anti-obesity activity in C57BL/6 mouse assessed as initial weight at high dose administered intragastrically once daily for 5 weeks (reference value: 19.06 +/- 0.94 g); settings: route ig
[34] = test system: Mus musculus; experiment: Anti-obesity activity in C57BL/6 mouse assessed as liver IL-6 level at low dose administered intragastrically once daily for 5 weeks (reference value: 1042.25 +/- 21.85 pg/g)
[35] = test system: Mus musculus; experiment: Anti-obesity activity in C57BL/6 mouse assessed as reduction in body weight at high dose administered intragastrically once daily for 5 weeks relative to control; design: scale not given: the % may be the effect or the level left; settings: route ig
[36] = test system: Mus musculus; experiment: Anti-obesity activity in C57BL/6 mouse assessed as decrease in ratio of p-mTOR/mTOR levels in liver at low to high dose administered intragastrically once daily for 5 weeks by immunoblot analysis; settings: route ig
[37] = test system: Mus musculus; experiment: Anti-obesity activity in C57BL/6 mouse assessed as serum TG level at low dose administered intragastrically once daily for 5 weeks (reference value: 13.13 +/- 1.10 mmol/g)

**Q.** Which Activity [1] does the source give for O=c1cc(-c2ccc(O)cc2)oc2c([C@@H]3O[C@H](CO)[C@@H](O)[C@H](O)[C@H]3O)c(O)cc(O)c12 here?
**A.** 125 pg/mL

**Q.** What about the Activity [2] of the same molecule?
**A.** 8.44 mmol/g

**Q.** And the Activity [3]?
**A.** Active

**Q.** And the Activity [4]?
**A.** 806 pg/g

**Q.** What about the Activity [5] of the same molecule?
**A.** 26.7 g

**Q.** And the Activity [6]?
**A.** 29.8%

**Q.** What about the Activity [7] of the same molecule?
**A.** Active

**Q.** And the Activity [8]?
**A.** 5140 pg/g

**Q.** And the Activity [9]?
**A.** 30.8%

**Q.** What about the Activity [10] of the same molecule?
**A.** 8.23 mmol/g

**Q.** And the Activity [11]?
**A.** 27.6%

**Q.** What about the Activity [12] of the same molecule?
**A.** 3.6%

**Q.** What about the Activity [13] of the same molecule?
**A.** 3.23 g

**Q.** And the Activity [14]?
**A.** 24.9 g

**Q.** And the Activity [15]?
**A.** 5.76 g

**Q.** What about the Activity [16] of the same molecule?
**A.** Active

**Q.** What about the Activity [17] of the same molecule?
**A.** 0.8 g

**Q.** What about the Activity [18] of the same molecule?
**A.** Active

**Q.** What about the Activity [19] of the same molecule?
**A.** 37.3%

**Q.** And the Activity [20]?
**A.** Active

**Q.** And the Activity [21]?
**A.** 108 pg/mL

**Q.** What about the Activity [22] of the same molecule?
**A.** Active

**Q.** What about the Activity [23] of the same molecule?
**A.** 7.81 mmol/g

**Q.** And the Activity [24]?
**A.** Active

**Q.** And the Activity [25]?
**A.** 1.06 g

**Q.** What about the Activity [26] of the same molecule?
**A.** 4110 pg/g

**Q.** And the Activity [27]?
**A.** 22.7%

**Q.** What about the Activity [28] of the same molecule?
**A.** Active

**Q.** And the Activity [29]?
**A.** 4.07 g

**Q.** And the Activity [30]?
**A.** Active

**Q.** And the Activity [31]?
**A.** Active

**Q.** What about the Activity [32] of the same molecule?
**A.** 21 g

**Q.** And the Activity [33]?
**A.** 20.8 g

**Q.** What about the Activity [34] of the same molecule?
**A.** 829 pg/g

**Q.** And the Activity [35]?
**A.** 13.8%

**Q.** What about the Activity [36] of the same molecule?
**A.** Active

**Q.** What about the Activity [37] of the same molecule?
**A.** 8.71 mmol/g

— ChEMBL document CHEMBL6114986, “Vitexin alleviates lipid metabolism disorders and hepatic injury in obese mice through the PI3K/AKT/mTOR/SREBP-1c pathway” (Eur J Med Chem, 2025)
